Results on eleven compounds are retold here after patent US6156724A, “Uses of didemnins as immunomodulating agents” (priority 1998, dated 2000).

Numbered stars: 1 amine (or outer) side, 2 acyl side, 3 side chain; on linkers, the order of the positions; unused ones are H or OH. Bridge positions count the residues as written; N and C are the ends. Square brackets hold non-standard residues; d marks the D form. Peptide text beside a SMILES is read from it. * marks the point of attachment. X1 = CC[C@H](C)[C@@H](N[*:1])[C@@H](O)CC(=O)O[C@H](C(=O)[C@H](C)C(=O)[*:2])C(C)C; X7 = CCC(C)C(N[*:1])C(O)CC(=O)OC(C(=O)C(C)C(=O)[*:2])C(C)C; NMeY = CN[CH](Cc1ccc(O)cc1)C(=O)O; Stearoyl = CCCCCCCCCCCCCCCCCC(=O)*; dNMeL = CN[C@H](CC(C)C)C(=O)O; Lauroyl = CCCCCCCCCCCC(=O)*; NMeL = CN[CH](CC(C)C)C(=O)O; Octanoyl = CCCCCCCC(=O)*; Hexanoyl = CCCCCC(=O)*; Pentanoyl = CCCCC(=O)*; Propionyl = CCC(=O)*; Butyryl = CCCC(=O)*

The IC50 is the concentration that inhibits the measured activity by half.

For data set [1], the system named is Balb/c splenocytes (resting lymphocytes). Kind of data set: Lymphocyte viability (LcV) assay. In kind it is cell-based, murine. Particulars: unstimulated Balb/c splenocytes, MTT. The procedure: Forty two (42) didemnin compounds (see Table 1) were evaluated for cytotoxicity to one of the lymphocyte populations in the MLR (i.e., Balb/c splenocytes). The purpose of the lymphocyte viability assay (LcV) is to measure metabolic activity in lymphocytes after they have been exposed to the compounds for the duration of an under conditions equivalent to the MLR. The inverse of the data yields cytotoxicity information about the compounds on murine lymphocytes. The rationale of using resting cells, in this case unstimulated lymphocytes, to measure cytotoxicity has a strategic importance. In the MLR the heterogenous cell populations are predominantly resting cells when the assay begins.
Test compounds were prepared in two sets as described above. Splenocytes were prepared as described previously from one murine strain (Balb/c), and a volume of 200 μL of the cell suspension was added to one set of test compounds and control wells.
Assay plates were incubated as in the MLR and then pulsed overnight 75 μL per well MTT-thiazolyl blue solution (150 μg). The plates were decanted and the resulting insoluble formazan crystals were dissolved in 200 μL of isopropyl alcohol. Absorbance at 570 nm was measured.
The LcV data were calculated as a percentage of basal metabolic activity, or percent viability, relative to BALB/c control, and an LC50 value was interpolated for each test compound.

Data set [2] deals with concanavalin A-induced lymphoblasts (Con A splenocytes). Kind of data set: Lymphoblast viability (LbV) assay. The following applies: Con A-stimulated splenocytes (lymphoblasts), MTT.
The subject of data set [3] is murine splenocytes (Balb/c and C57B1/6). Kind of data set: Two-way mixed lymphocyte reaction (MLR) assay.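 As to all read-outs here: proliferation read as tritiated thymidine incorporation into newly made DNA after an overnight pulse, expressed as percent of control activity, IC50 interpolated per compound.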 Particulars: Balb/c + C57B1/6 splenocytes, 96 h, [3H]thymidine; for IC50: read-out: two-way mixed lymphocyte reaction (MLR) suppression MLR, IC50.

`CC[C@H](C)[C@H]1NC(=O)[C@@H](NC(=O)[C@@H](CC(C)C)N(C)C(=O)[C@@H]2CCCN2C(=O)[C@H](C)O)[C@@H](C)OC(=O)[C@H](Cc2ccc(OC)c(I)c2)N(C)C(=O)[C@@H]2CCCN2C(=O)[C@H](CC(C)C)NC(=O)[C@@H](C)C(=O)[C@H](C(C)C)OC(=O)C[C@@H]1O` [Compound 14, Iododidemnin B]: the “cytoxicity to lymphocytes LcV, LC50” value in data set [1] is above 8100 nM. Further, the “cytoxicity to lymphocytes LcV, LC50” value in data set [1] (highest concentration 10 μg/mL) was above 10 µg/mL. Moreover, the “cytotoxicity to lymphocytes LbV, LC50” value in data set [2] turned out to be 0.82 nM. Besides, in data set [3], the “two-way mixed lymphocyte reaction (MLR) suppression MLR, IC50” value (“two-way mixed lymphocyte reaction” for short) was 0.81 ng/mL and the IC50 amounted to 0.66 nM.

For `CC[C@H](C)[C@H]1NC(=O)[C@@H](NC(=O)[C@@H](CC(C)C)N(C)C(=O)[C@@H]2CCCN2C(=O)[C@H](C)O)[C@@H](C)OC(=O)[C@H](CC2CCCCC2)N(C)C(=O)[C@@H]2CCCN2C(=O)[C@H](CC(C)C)NC(=O)[C@@H](C)C(=O)[C@H](C(C)C)OC(=O)C[C@@H]1O` [Compound 16, [H6 -N-MePhe^6]Didemnin B], the “cytoxicity to lymphocytes LcV, LC50” value in data set [1] was above 9200 nM; in data set [1] (highest concentration 10 μg/mL), above 10 µg/mL. In data set [2], the “cytotoxicity to lymphocytes LbV, LC50” value was found to be 0.73 nM. The “two-way mixed lymphocyte reaction” value in data set [3] came out at 0.57 ng/mL. Further, the IC50 in data set [3] came to 0.52 nM.

Regarding `CC[C@H](C)[C@@H](NC(=O)[C@@H](NC(=O)[C@@H](CC(C)C)NC)[C@@H](C)O)[C@@H](O)CC(=O)O[C@H](C(=O)[C@H](C)C(=O)N[C@@H](CC(C)C)C(=O)N1CCC[C@H]1C(=O)N(C)[C@@H](Cc1ccc(OC)cc1)C(=O)O)C(C)C` [Compound 17, Acyclodidemnin A] (H-[dNMeL]T[X1]LP[NMeY](Me)-OH), the “cytoxicity to lymphocytes LcV, LC50” value in data set [1] was above 10400 nM. Besides, in data set [1] (highest concentration 10 μg/mL), the “cytoxicity to lymphocytes LcV, LC50” value is above 10 µg/mL. The “cytotoxicity to lymphocytes LbV, LC50” value in data set [2] worked out at 240 nM. Moreover, in data set [3], the “two-way mixed lymphocyte reaction” value is on record as 0.54 ng/mL and the IC50 turned out to be 0.57 nM.

Turning to `CC[C@H](C)[C@H]1NC(=O)[C@@H](NC(=O)[C@@H](CC(C)C)N(C)C(C)=O)[C@@H](C)OC(=O)[C@H](Cc2ccc(OC)cc2)N(C)C(=O)[C@@H]2CCCN2C(=O)[C@H](CC(C)C)NC(=O)[C@@H](C)C(=O)[C@H](C(C)C)OC(=O)C[C@@H]1O` [Compound 18, N^α -Acetyldidemnin A] (Ac-[dNMeL]T[X1]LP[NMeY](Me); ester 2-C), the “cytoxicity to lymphocytes LcV, LC50” value in data set [1] was above 10000 nM. For the same compound, in data set [1] (highest concentration 10 μg/mL), the “cytoxicity to lymphocytes LcV, LC50” value was above 10 µg/mL. Further, the “cytotoxicity to lymphocytes LbV, LC50” value in data set [2] was found to be 0.39 nM. In data set [3], the “two-way mixed lymphocyte reaction” value came to 0.027 ng/mL and the IC50 is 0.027 nM.

On to `CCC(=O)N(C)[C@H](CC(C)C)C(=O)N[C@@H]1C(=O)N[C@H]([C@@H](C)CC)[C@@H](O)CC(=O)O[C@@H](C(C)C)C(=O)[C@H](C)C(=O)N[C@@H](CC(C)C)C(=O)N2CCC[C@H]2C(=O)N(C)[C@@H](Cc2ccc(OC)cc2)C(=O)O[C@@H]1C` [Compound 19, N^α -Propionyldidemnin A] (Propionyl-[dNMeL]T[X1]LP[NMeY](Me); ester 2-C), for which the “cytoxicity to lymphocytes LcV, LC50” value in data set [1] was 6500 nM. For the same compound, the “cytoxicity to lymphocytes LcV, LC50” value in data set [1] (highest concentration 10 μg/mL) was 6.50 µg/mL. Moreover, the “cytotoxicity to lymphocytes LbV, LC50” value in data set [2] is 0.068 nM. Moreover, in data set [3], the “two-way mixed lymphocyte reaction” value stood at 0.37 ng/mL and the IC50 stood at 0.37 nM.

Take `CCCC(=O)N(C)C(CC(C)C)C(=O)NC1C(=O)NC(C(C)CC)C(O)CC(=O)OC(C(C)C)C(=O)C(C)C(=O)NC(CC(C)C)C(=O)N2CCCC2C(=O)N(C)C(Cc2ccc(OC)cc2)C(=O)OC1C` (stereo not drawn) [Compound 20, N^α -n-Butyryldidemnin A] (Butyryl-[NMeL]T[X7]LP[NMeY](Me); ester 2-C; configuration not given here): in data set [1], the “cytoxicity to lymphocytes LcV, LC50” value is 99 nM. In addition, the “cytotoxicity to lymphocytes LbV, LC50” value in data set [2] was 0.074 nM. In addition, in data set [3], the “two-way mixed lymphocyte reaction” value is on record as 0.30 ng/mL and the IC50 amounted to 0.3 nM.

Regarding `CCCCC(=O)N(C)[C@H](CC(C)C)C(=O)N[C@@H]1C(=O)N[C@H]([C@@H](C)CC)[C@@H](O)CC(=O)O[C@@H](C(C)C)C(=O)[C@H](C)C(=O)N[C@@H](CC(C)C)C(=O)N2CCC[C@H]2C(=O)N(C)[C@@H](Cc2ccc(OC)cc2)C(=O)O[C@@H]1C` [Compound 21, N^α -Pentanoyldidemnin A] (Pentanoyl-[dNMeL]T[X1]LP[NMeY](Me); ester 2-C), the “cytoxicity to lymphocytes LcV, LC50” value in data set [1] was determined as 9700 nM. For the same compound, the “cytoxicity to lymphocytes LcV, LC50” value in data set [1] (highest concentration 10 μg/mL) was above 10 µg/mL. Besides, the “cytotoxicity to lymphocytes LbV, LC50” value in data set [2] was 0.059 nM. Further, in data set [3], the “two-way mixed lymphocyte reaction” value was determined as 0.48 ng/mL and the IC50 came out at 0.48 nM.

Turning to `CCCCCC(=O)N(C)[C@H](CC(C)C)C(=O)N[C@@H]1C(=O)N[C@H]([C@@H](C)CC)[C@@H](O)CC(=O)O[C@@H](C(C)C)C(=O)[C@H](C)C(=O)N[C@@H](CC(C)C)C(=O)N2CCC[C@H]2C(=O)N(C)[C@@H](Cc2ccc(OC)cc2)C(=O)O[C@@H]1C` [Compound 22, N^α -Hexanoyldidemnin A] (Hexanoyl-[dNMeL]T[X1]LP[NMeY](Me); ester 2-C), the “cytoxicity to lymphocytes LcV, LC50” value in data set [1] stood at 9600 nM. Further, the “cytoxicity to lymphocytes LcV, LC50” value in data set [1] (highest concentration 10 μg/mL) is above 10 µg/mL. Moreover, the “cytotoxicity to lymphocytes LbV, LC50” value in data set [2] came out at 0.11 nM. Moreover, in data set [3], the “two-way mixed lymphocyte reaction” value was found to be 0.022 ng/mL and the IC50 stood at 0.021 nM.

As for `CCCCCCCC(=O)N(C)[C@H](CC(C)C)C(=O)N[C@@H]1C(=O)N[C@H]([C@@H](C)CC)[C@@H](O)CC(=O)O[C@@H](C(C)C)C(=O)[C@H](C)C(=O)N[C@@H](CC(C)C)C(=O)N2CCC[C@H]2C(=O)N(C)[C@@H](Cc2ccc(OC)cc2)C(=O)O[C@@H]1C` [Compound 23, N^α -Octanoyldidemnin A] (Octanoyl-[dNMeL]T[X1]LP[NMeY](Me); ester 2-C), the “cytoxicity to lymphocytes LcV, LC50” value in data set [1] was above 9350 nM. For the same compound, in data set [1] (highest concentration 10 μg/mL), the “cytoxicity to lymphocytes LcV, LC50” value is above 10 µg/mL. In data set [2], the “cytotoxicity to lymphocytes LbV, LC50” value was 21 nM. In addition, in data set [3], the “two-way mixed lymphocyte reaction” value came to 5.50 ng/mL and the IC50 is 5.1 nM.

`CCCCCCCCCCCC(=O)N(C)[C@H](CC(C)C)C(=O)N[C@@H]1C(=O)N[C@H]([C@@H](C)CC)[C@@H](O)CC(=O)O[C@@H](C(C)C)C(=O)[C@H](C)C(=O)N[C@@H](CC(C)C)C(=O)N2CCC[C@H]2C(=O)N(C)[C@@H](Cc2ccc(OC)cc2)C(=O)O[C@@H]1C` [Compound 24, N^α -Dodecanoyldidemnin A] (Lauroyl-[dNMeL]T[X1]LP[NMeY](Me); ester 2-C): the “cytoxicity to lymphocytes LcV, LC50” value in data set [1] is above 8900 nM. In addition, the “cytoxicity to lymphocytes LcV, LC50” value in data set [1] (highest concentration 10 μg/mL) was above 10 µg/mL. Also, in data set [2], the “cytotoxicity to lymphocytes LbV, LC50” value came to 160 nM. Further, in data set [3], the “two-way mixed lymphocyte reaction” value turned out to be 119 ng/mL and the IC50 worked out at 106 nM.

Consider `CCCCCCCCCCCCCCCCCC(=O)N(C)[C@H](CC(C)C)C(=O)N[C@@H]1C(=O)N[C@H]([C@@H](C)CC)[C@@H](O)CC(=O)O[C@@H](C(C)C)C(=O)[C@H](C)C(=O)N[C@@H](CC(C)C)C(=O)N2CCC[C@H]2C(=O)N(C)[C@@H](Cc2ccc(OC)cc2)C(=O)O[C@@H]1C` [Compound 25, N^α -Octadecanoyldidemnin A] (Stearoyl-[dNMeL]T[X1]LP[NMeY](Me); ester 2-C), for which the “cytoxicity to lymphocytes LcV, LC50” value was above 8500 nM in data set [1] and above 10 µg/mL in data set [1] (highest concentration 10 μg/mL). In addition, the “cytotoxicity to lymphocytes LbV, LC50” value in data set [2] is 2700 nM. The “two-way mixed lymphocyte reaction” value in data set [3] amounted to 6040 ng/mL. In data set [3], the IC50 is 5110 nM.
